Results from ChEMBL document CHEMBL5137043, “trans, trans-2-C-Aryl-3,4-dihydroxypyrrolidines as potent and selective β-glucosidase inhibitors: Pharmacological chaperones for Gaucher disease” (Eur J Med Chem, 2022).

Tests used:
[1] = system: Helix pomatia; assay: Inhibition of snail beta-mannosidase assessed as reduction of p-nitrophenol release using p-nitrophenyl-glycoside as substrate at 1000 uM by spectrophotometric analysis
[2] = target: Lysosomal alpha-glucosidase (Rattus norvegicus) (UniProt Q6P7A9); assay: Inhibition of rat small intestinal maltase assessed as reduction of D-glucose release using maltose as substrate at 1000 uM by colorimetric analysis; assay type: tissue-based; details: Small intestine
Sequence of Lysosomal alpha-glucosidase (Rattus norvegicus) (Q6P7A9 whole entry): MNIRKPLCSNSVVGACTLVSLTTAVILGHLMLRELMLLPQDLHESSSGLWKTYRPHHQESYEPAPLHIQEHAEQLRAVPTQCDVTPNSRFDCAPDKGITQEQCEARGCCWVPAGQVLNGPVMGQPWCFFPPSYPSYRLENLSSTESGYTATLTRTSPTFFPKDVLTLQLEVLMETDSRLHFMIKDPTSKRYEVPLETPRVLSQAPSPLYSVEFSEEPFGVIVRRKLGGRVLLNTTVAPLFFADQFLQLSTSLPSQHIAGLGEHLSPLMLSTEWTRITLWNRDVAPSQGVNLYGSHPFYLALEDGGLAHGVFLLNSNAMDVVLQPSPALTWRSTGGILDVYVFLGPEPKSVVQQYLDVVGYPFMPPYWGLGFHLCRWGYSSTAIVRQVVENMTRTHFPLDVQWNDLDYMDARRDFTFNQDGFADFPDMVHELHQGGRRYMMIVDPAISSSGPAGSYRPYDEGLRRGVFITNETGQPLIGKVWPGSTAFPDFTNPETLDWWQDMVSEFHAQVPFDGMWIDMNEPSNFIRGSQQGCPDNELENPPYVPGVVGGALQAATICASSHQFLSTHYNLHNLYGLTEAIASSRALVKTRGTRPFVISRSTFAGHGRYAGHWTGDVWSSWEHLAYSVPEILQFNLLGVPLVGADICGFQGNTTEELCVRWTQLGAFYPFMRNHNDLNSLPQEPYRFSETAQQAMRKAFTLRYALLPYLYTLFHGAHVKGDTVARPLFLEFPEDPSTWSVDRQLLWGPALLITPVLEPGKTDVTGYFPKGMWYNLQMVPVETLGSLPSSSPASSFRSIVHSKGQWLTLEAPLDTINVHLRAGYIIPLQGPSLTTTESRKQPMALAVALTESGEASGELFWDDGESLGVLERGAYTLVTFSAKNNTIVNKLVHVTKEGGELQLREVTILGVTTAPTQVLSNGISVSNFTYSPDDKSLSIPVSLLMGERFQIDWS

[3] = target: T1, Alpha-mannosidase (Canavalia ensiformis) (UniProt C0HJB3); assay: Inhibition of jack bean alpha-mannosidase assessed as reduction of p-nitrophenol release using p-nitrophenyl-glycoside as substrate at 1000 uM by spectrophotometric analysis
T1 sequence (whole entry): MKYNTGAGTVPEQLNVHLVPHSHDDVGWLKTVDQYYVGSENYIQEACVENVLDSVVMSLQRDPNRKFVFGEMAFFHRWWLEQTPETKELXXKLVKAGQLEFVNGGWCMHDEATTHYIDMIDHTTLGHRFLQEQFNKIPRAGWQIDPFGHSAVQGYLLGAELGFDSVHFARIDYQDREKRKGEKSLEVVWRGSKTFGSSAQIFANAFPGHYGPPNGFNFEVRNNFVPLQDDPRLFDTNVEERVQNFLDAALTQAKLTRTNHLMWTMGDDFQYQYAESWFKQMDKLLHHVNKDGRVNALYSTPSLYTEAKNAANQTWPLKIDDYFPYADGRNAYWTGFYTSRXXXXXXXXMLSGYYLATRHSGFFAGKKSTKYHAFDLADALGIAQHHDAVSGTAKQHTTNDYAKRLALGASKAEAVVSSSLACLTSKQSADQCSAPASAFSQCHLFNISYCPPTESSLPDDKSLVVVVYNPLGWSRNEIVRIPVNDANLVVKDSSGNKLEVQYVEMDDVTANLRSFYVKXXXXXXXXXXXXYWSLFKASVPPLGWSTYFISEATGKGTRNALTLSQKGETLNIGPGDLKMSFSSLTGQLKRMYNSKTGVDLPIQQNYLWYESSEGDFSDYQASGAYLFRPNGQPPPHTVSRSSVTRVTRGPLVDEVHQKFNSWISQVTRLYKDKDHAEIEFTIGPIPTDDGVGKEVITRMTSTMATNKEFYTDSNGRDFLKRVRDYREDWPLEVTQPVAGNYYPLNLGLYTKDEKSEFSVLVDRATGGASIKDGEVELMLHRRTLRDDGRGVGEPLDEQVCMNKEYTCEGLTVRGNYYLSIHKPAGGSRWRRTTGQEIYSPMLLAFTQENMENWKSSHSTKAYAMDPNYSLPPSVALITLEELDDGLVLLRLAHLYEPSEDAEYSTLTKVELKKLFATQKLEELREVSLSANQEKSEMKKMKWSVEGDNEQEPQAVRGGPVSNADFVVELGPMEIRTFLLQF

[4] = system: Saccharomyces cerevisiae; assay: Inhibition of yeast alpha-glucosidase assessed as reduction of p-nitrophenol release using p-nitrophenyl-glycoside as substrate at 1000 uM by spectrophotometric analysis
[5] = species on record: Bos taurus; assay: Inhibition of bovine liver beta-glucuronidase assessed as reduction of p-nitrophenol release using p-nitrophenyl-glycoside as substrate at 1000 uM by spectrophotometric analysis
[6] = species on record: Sus scrofa; assay: Inhibition of porcine kidney alpha-trehalase assessed as reduction of p-nitrophenol release using p-nitrophenyl-glycoside as substrate at 1000 uM by spectrophotometric analysis; assay type: tissue-based
[7] = species on record: Bos taurus; assay: Inhibition of bovine liver beta-glucosidase assessed as reduction of p-nitrophenol release using p-nitrophenyl-glycoside as substrate at 1000 uM by spectrophotometric analysis
[8] = target: Lysosomal alpha-glucosidase (Homo sapiens) (UniProt P10253); assay: Inhibition of human lysosomal alpha-glucosidase assessed as reduction of p-nitrophenol release using p-nitrophenyl-glycoside as substrate at 1000 uM by spectrophotometric analysis; details: Lysosome
[9] = system: Escherichia coli; assay: Inhibition of Escherichia coli beta-glucuronidase assessed as reduction of p-nitrophenol release using p-nitrophenyl-glycoside as substrate at 1000 uM by spectrophotometric analysis
[10] = system: Oryza sativa; assay: Inhibition of rice alpha-glucosidase assessed as reduction of p-nitrophenol release using p-nitrophenyl-glycoside as substrate at 1000 uM by spectrophotometric analysis
[11] = target: Alpha-galactosidase (Coffea arabica) (UniProt Q42656); assay: Inhibition of coffee beans alpha-galactosidase assessed as reduction of p-nitrophenol release using p-nitrophenyl-glycoside as substrate at 1000 uM by spectrophotometric analysis
Sequence of Alpha-galactosidase (Coffea arabica) (Q42656 16-378 limits assumed): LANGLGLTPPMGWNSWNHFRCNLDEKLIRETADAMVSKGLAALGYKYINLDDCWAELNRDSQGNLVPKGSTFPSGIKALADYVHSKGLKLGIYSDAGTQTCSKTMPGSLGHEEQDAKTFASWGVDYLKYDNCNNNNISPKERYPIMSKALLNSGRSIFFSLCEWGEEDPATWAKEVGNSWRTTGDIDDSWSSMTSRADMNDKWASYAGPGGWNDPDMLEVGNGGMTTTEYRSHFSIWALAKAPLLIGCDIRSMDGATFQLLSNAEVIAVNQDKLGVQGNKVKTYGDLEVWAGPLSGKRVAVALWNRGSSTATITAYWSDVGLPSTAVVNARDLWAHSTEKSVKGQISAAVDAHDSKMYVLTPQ

[12] = species on record: Bos taurus; assay: Inhibition of bovine liver beta-galactosidase assessed as reduction of p-nitrophenol release using p-nitrophenyl-glycoside as substrate at 1000 uM by spectrophotometric analysis
[13] = target: Sucrase-isomaltase, intestinal (Rattus norvegicus, UniProt P23739); assay: Inhibition of rat small intestinal sucrase assessed as reduction of p-nitrophenol release using p-nitrophenyl-glycoside as substrate by spectrophotometric analysis; assay type: tissue-based, Small intestine
Sequence of Sucrase-isomaltase, intestinal (P23739 1-1013 limits assumed): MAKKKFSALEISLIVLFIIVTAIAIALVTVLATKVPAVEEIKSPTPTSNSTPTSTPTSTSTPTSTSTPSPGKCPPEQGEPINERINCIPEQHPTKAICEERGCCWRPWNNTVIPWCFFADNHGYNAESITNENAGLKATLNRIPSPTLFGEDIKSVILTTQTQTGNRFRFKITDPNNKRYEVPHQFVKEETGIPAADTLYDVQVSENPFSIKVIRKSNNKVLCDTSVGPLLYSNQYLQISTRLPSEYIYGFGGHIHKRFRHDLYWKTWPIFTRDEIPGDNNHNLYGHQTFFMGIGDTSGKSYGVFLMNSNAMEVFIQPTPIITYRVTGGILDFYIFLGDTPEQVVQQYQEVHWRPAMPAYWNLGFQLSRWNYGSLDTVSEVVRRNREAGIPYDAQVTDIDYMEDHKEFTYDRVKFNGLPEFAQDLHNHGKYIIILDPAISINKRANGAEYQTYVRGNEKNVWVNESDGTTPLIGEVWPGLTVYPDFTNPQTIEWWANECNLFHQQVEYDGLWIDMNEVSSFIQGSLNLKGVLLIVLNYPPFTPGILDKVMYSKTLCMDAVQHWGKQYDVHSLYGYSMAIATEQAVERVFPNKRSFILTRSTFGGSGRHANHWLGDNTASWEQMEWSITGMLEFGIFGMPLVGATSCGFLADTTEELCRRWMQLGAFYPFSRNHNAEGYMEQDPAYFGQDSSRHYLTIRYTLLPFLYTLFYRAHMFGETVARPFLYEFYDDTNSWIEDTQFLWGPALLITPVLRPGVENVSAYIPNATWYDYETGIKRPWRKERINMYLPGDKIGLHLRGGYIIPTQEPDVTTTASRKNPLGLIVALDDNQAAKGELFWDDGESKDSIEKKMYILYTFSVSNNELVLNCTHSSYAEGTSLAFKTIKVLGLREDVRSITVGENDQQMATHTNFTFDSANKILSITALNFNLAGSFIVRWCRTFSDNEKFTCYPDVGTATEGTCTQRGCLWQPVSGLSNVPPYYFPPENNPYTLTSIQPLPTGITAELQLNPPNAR
Sequence of Sucrase-isomaltase, intestinal (P23739 1014-1841 limits assumed): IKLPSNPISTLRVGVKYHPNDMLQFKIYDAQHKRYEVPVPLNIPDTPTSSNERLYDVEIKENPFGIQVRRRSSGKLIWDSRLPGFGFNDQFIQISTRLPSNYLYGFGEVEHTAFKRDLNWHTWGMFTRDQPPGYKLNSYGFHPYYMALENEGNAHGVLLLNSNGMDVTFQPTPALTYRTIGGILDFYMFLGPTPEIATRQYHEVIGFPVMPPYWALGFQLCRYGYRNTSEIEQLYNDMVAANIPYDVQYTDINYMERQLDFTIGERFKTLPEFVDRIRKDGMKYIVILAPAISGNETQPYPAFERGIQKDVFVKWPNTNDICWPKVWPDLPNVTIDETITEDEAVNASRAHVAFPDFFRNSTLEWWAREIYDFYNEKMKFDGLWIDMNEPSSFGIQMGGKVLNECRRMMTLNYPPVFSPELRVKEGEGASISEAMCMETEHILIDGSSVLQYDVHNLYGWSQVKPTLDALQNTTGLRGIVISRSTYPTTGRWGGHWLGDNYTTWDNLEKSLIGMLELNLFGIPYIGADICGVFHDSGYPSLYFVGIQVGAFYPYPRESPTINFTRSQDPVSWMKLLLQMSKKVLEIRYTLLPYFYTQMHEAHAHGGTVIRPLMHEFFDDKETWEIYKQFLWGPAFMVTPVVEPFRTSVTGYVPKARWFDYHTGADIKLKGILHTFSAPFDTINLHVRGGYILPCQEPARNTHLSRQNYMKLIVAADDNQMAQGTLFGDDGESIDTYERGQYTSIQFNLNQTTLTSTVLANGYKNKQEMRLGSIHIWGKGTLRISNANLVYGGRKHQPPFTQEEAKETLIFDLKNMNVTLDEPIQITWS

[14] = system: Prunus dulcis; assay: Inhibition of almond beta-glucosidase assessed as reduction of p-nitrophenol release using p-nitrophenyl-glycoside as substrate at 1000 uM by spectrophotometric analysis
[15] = system: Aspergillus niger; assay: Inhibition of Aspergillus niger amyloglucosidase assessed as reduction of p-nitrophenol release using p-nitrophenyl-glycoside as substrate at 1000 uM by spectrophotometric analysis
[16] = Inhibition of human lysosomal beta-glucosidase assessed as reduction of p-nitrophenol release using p-nitrophenyl-glycoside as substrate by spectrophotometric analysis; assay type: subcellular, Lysosome
[17] = target: T2, Tissue alpha-L-fucosidase (Bos taurus) (UniProt Q2KIM0); assay: Inhibition of bovine kidney alpha-L-fucosidase assessed as reduction of p-nitrophenol release using p-nitrophenyl-glycoside as substrate at 1000 uM by spectrophotometric analysis; assay type: tissue-based
T2 sequence (whole entry): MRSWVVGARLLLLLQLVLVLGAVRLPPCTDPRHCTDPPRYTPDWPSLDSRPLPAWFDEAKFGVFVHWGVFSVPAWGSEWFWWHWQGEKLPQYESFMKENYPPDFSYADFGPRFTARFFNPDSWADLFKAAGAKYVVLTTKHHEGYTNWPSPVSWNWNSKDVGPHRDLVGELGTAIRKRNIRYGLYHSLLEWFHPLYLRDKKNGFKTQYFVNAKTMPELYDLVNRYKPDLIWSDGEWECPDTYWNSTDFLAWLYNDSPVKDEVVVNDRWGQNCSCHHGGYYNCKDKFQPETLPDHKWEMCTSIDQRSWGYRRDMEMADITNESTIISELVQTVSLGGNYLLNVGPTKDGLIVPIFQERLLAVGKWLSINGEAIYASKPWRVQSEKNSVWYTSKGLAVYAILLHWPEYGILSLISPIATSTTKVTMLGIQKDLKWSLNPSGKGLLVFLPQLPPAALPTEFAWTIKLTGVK

[18] = system: Penicillium decumbens; assay: Inhibition of Penicillium decumbens alpha-L-rhamnosidase assessed as reduction of p-nitrophenol release using p-nitrophenyl-glycoside as substrate at 1000 uM by spectrophotometric analysis
[19] = target: T3, Lysosomal acid glucosylceramidase (Homo sapiens, UniProt P04062); assay: Inhibition of human GCase assessed as reduction of 4-methylumbelliferone liberation using 4-methylumbelliferyl-beta-glucopyranoside as substrate preincubated with enzyme for 45 mins followed by substrate addition and measured after 30 mins by fluorescence spectrophotometry
T3 sequence (P04062 whole entry): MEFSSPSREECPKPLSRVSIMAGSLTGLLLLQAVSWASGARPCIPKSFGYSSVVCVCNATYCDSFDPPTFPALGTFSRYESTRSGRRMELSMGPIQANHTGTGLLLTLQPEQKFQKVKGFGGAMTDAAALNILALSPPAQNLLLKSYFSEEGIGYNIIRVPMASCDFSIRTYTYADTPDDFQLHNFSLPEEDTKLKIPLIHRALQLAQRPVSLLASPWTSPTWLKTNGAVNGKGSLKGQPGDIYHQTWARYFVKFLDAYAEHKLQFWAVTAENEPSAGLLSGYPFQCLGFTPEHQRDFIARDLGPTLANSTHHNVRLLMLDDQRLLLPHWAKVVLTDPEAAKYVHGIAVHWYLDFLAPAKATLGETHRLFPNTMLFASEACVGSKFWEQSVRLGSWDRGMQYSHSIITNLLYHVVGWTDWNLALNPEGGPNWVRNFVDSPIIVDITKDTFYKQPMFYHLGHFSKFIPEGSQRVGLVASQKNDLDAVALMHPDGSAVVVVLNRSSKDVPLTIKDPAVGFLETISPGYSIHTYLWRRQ

[20] = Inhibition of bovine liver beta-galactosidase assessed as reduction of p-nitrophenol release using p-nitrophenyl-glycoside as substrate by spectrophotometric analysis; design: species or system Bos taurus
[21] = Inhibition of Escherichia coli beta-glucuronidase assessed as reduction of p-nitrophenol release using p-nitrophenyl-glycoside as substrate by spectrophotometric analysis
[22] = Inhibition of rice alpha-glucosidase assessed as reduction of p-nitrophenol release using p-nitrophenyl-glycoside as substrate by spectrophotometric analysis; design: species or system Oryza sativa
[23] = Inhibition of almond beta-glucosidase assessed as reduction of p-nitrophenol release using p-nitrophenyl-glycoside as substrate by spectrophotometric analysis; design: species or system Prunus dulcis
[24] = target: T3, Lysosomal acid glucosylceramidase; assay: Inhibition of human GCase

Row | SMILES | inhibition [1] [%] | inhibition [3] [%] | inhibition [4] [%] | inhibition [5] [%] | inhibition [6] [%] | inhibition [7] [%] | inhibition [8] [%] | inhibition [11] [%] | IC50 [13] [µM] | inhibition [15] [%] | IC50 [16] [µM] | inhibition [17] [%] | inhibition [18] [%] | IC50 [19] [µM] | further results
1 | O[C@@H]1[C@@H](O)CN[C@H]1c1ccc(F)cc1 | 2.2 | 1.2 | 8.6 | 0 | 6.5 | 14.8 | 30 | 16.6 | 117 | 0 | 13 | 0 | 8.3 | – | inhibition [2]: 25.6%; inhibition [9]: 26.8%; inhibition [10]: 41.8%; inhibition [12]: 25.2%; inhibition [14]: 12.6%
2 | O[C@H]1[C@H](O)CN[C@@H]1c1ccc(F)cc1 | 4.8 | 0.8 | 5.6 | 2 | 1.6 | 29 | 13.4 | 2 | 339 | 0 | 6.2 | 0 | 0 | – | inhibition [2]: 14%; inhibition [9]: 43.4%; inhibition [10]: 47.3%; inhibition [12]: 39.9%; inhibition [14]: 15%
3 | Cc1ccc([C@@H]2NC[C@H](O)[C@H]2O)cc1 | 2.2 | 0.4 | 5.3 | 0.3 | 17.6 | 46.4 | 4.8 | 0 | 389 | 2.3 | 8.7 | 0 | 2.3 | – | inhibition [2]: 23.1%; inhibition [10]: 15.8%; IC50 [20]: 470 µM; IC50 [21]: 610 µM; inhibition [14]: 11%
4 | Cc1ccc([C@H]2NC[C@@H](O)[C@@H]2O)cc1 | 1.9 | 0 | 11 | 0.3 | 0 | 38.2 | 15 | 0 | 1210 | 0 | 3.4 | 4.2 | 2.8 | – | inhibition [2]: 24.6%; inhibition [10]: 22.8%; IC50 [20]: 602 µM; IC50 [21]: 269 µM; inhibition [14]: 13.5%
5 | O[C@@H]1[C@@H](O)CN[C@H]1c1ccccc1 [listing 1 of 3 here] | 1.1 | 2 | 0.3 | 15 | 5.7 | 31.7 | 24.6 | 2.6 | – | 0 | – | 0 | 1.8 | – | inhibition [2]: 16.5%; inhibition [9]: 8.5%; inhibition [12]: 49%; inhibition [14]: 3.4%
6 | O[C@@H]1[C@@H](O)CN[C@H]1c1ccccc1 [listing 2 of 3 here] | – | – | – | – | – | – | – | – | 603 | – | 22 | – | – | – | IC50 [22]: 560 µM
7 | O[C@H]1[C@H](O)CN[C@@H]1CCCc1ccccc1 | 5.6 | 20.6 | 28.5 | 0.3 | 5.3 | 42.1 | 26.5 | 0 | 264 | 0 | 3.1 | 6.2 | 8.3 | – | IC50 [23]: 565 µM; inhibition [10]: 38%; IC50 [20]: 578 µM; IC50 [21]: 910 µM
8 | CCCCCCO[C@H]1CNC[C@@H](O)[C@@H]1O | – | – | – | – | – | – | – | – | – | – | – | – | – | – | IC50 [24]: 0.009 µM
9 | CCCCCCCCCC1NC[C@@H](O)[C@H](O)[C@H]1O (stereo partly drawn) | – | – | – | – | – | – | – | – | – | – | – | – | – | – | IC50 [24]: 0.0068 µM
10 | O[C@@H]1[C@@H](O)CN[C@H]1c1ccccc1 [listing 3 of 3 here] | – | – | – | – | – | – | – | – | – | – | – | – | – | – | IC50 [24]: 26.5 µM

The next lines start with results.

Row | inhibition [1] [%] | inhibition [3] [%] | inhibition [4] [%] | inhibition [5] [%] | inhibition [6] [%] | inhibition [7] [%] | inhibition [8] [%] | inhibition [11] [%] | IC50 [13] [µM] | inhibition [15] [%] | IC50 [16] [µM] | inhibition [17] [%] | inhibition [18] [%] | IC50 [19] [µM] | SMILES | further results
11 | – | – | – | – | – | – | – | – | – | – | – | – | – | 34 | CCCCC[C@H]1N[C@H](CO)[C@@H](O)[C@@H]1O | –
12 | – | – | – | – | – | – | – | – | – | – | – | – | – | 30 | CCCCCC[C@H]1N[C@H](CO)[C@@H](O)[C@@H]1O | –
13 | – | – | – | – | – | – | – | – | – | – | – | – | – | 3.3 | CCCCCCCCC[C@H]1N[C@H](CO)[C@@H](O)[C@@H]1O | –
14 | – | – | – | – | – | – | – | – | – | – | – | – | – | 2.3 | CCCCCCCCCCC[C@H]1N[C@H](CO)[C@@H](O)[C@@H]1O | –
15 | – | – | – | – | – | – | – | – | – | – | – | – | – | 6.2 | CCCCCCCC[C@H]1N[C@H](CO)[C@@H](O)[C@@H]1O | –
16 | – | – | – | – | – | – | – | – | – | – | – | – | – | 38 | CCCCCCC[C@H]1N[C@H](CO)[C@@H](O)[C@@H]1O | –
17 | – | – | – | – | – | – | – | – | – | – | – | – | – | 0.77 | CCCCCCCCCCCCC[C@H]1N[C@H](CO)[C@@H](O)[C@@H]1O | –
18 | – | – | – | – | – | – | – | – | – | – | – | – | – | 1.9 | CCCCCCCCCC[C@H]1N[C@H](CO)[C@@H](O)[C@@H]1O | –
